Data set [1] deals with S. aureus inoculation abscess / soft tissue infection. The experiment in a line: PET uptake in infected soft tissue (inguinal inoculation abscess, lymph node) of pigs. From the text: (§1) Fifteen domestic pigs, all clinically healthy, specific pathogen-free Danish Landrace Yorkshire cross-bred female pigs aged 8–9 weeks weighing 18.3–24.5 kg, were purchased from local commercial pig farmers. After at least one week of acclimatization, the pigs fasted over-night. Then they were premedicated with s-ketamine (Pfizer, Ballerup, Denmark) and midazolam (B. Braun Medical, Frederiksberg, Denmark) intramuscularly and anesthetized with propofol (B. Braun Medical, Frederiksberg, Denmark) intravenously. Finally, they were inoculated with a well-characterized porcine strain of S. aureus S54F9 (approximately 10,000 CFU/kg body weight) into the femoral artery of the right hind limb to induce OM in that limb, as described elsewhere. […] The pigs were all treated with 30–45 µg/kg buprenorphine (Indivior, Berkshire, United Kingdom) intramuscularly thrice daily from the time before inoculation and until scanning at day 6 and 7 after inoculation. After scanning, pigs were euthanized with an overdose of pentobarbitone (Scan Vet Animal Health, Fredensborg, Denmark) while still under anesthesia. Humane endpoints were: anorexia for more than 24 h, superficial respiration, the inability to stand up, or signs of systemic infection. […] The environment was characterized by a room temperature of 20 °C, relative humidity of 51–55%, 12 h in light/12 h in dark cycles, an exchange of air at least eight times per hour. Pigs were fasted overnight before anesthesia.
(§2) The average injected activity was as median 178 MBq (range 126–253 MBq), corresponding to ~8–12 MBq/kg. The PET was performed ~72 min (60–126 min, early scan) and 139 min (118–186 min, late scan) after injection of [^68Ga]Ga-DOTA-Siglec-9 (pigs 1–3 and 12–15, Table 1).
(§3) ^18F were produced at the PET Center Aarhus using either a PETtrace 800 series cyclotron (GE Healthcare, Uppsala, Sweden) or a Cyclone 18/18 cyclotron (IBA, Louvain La Neuve, Belgium). [^18F]FDG was produced by a standard procedure applying a GE Healthcare MX Tracerlab synthesizer, Mx cassettes supplied by Rotem Industries (Arava, Israel), and chemical kits supplied by ABX GmbH (Radeberg, Germany). […] The median injected activity was 125 MBq (range 94–497 MBq), corresponding to ~5–24 MBq/kg. The PET was performed ~61 min (50–76 min) after injection of [^18F]FDG (pigs 1–15, Table 1).
(§4) The pigs were scanned at locations; Aalborg and Aarhus PET Centers. […] They were in propofol anesthesia and mechanically ventilated throughout the scan. Reflexes, pulse, oxygen saturation, and body temperature were monitored.

Data set [2] has as its system Staphylococcus aureus induced osteomyelitis (OM) lesions. The experiment in a line: Static PET/CT tracer uptake in S. aureus induced osteomyelitis lesions, juvenile pig model. As to conditions: for Standard uptake values (SUV) in OM lesions: static whole-body PET/CT about 1 h after i.v. tracer injection, day 6-7 after S. aureus S54F9 inoculation.
From the text: as §1
(§5) Osteomyelitis was verified by CT imaging, necropsy, histology, and/or bacterial cultivation.
(§6) The average injected activity was a median of 760 MBq (range 348–848 MBq) of [^68Ga]Ga-DOTA-K-A9, corresponding to ~17–46 MBq/kg and median 475 MBq (range 65–500 MBq) of [^68Ga]Ga-DOTA-GSGK-A11, corresponding to ~3–23 MBq/kg. PET was performed median ~60 min (60–61min) after injection of [^68Ga]Ga-DOTA-K-A9 (pigs 4–6, Table 1) and ~62 min (62–62 min) after injection of [^68Ga]Ga-DOTA-GSGK-A11 (pigs 7–8, Table 1) in the jugular vein.
(§7) Fluoride-18 was produced via the ^18O (p,n) ^18F nuclear reaction using a cyclotron. The target content was passed through a QMA-light Sep-Pak (Waters, Hedehusene, Denmark) to trap F-18. The solution was washed with 10 mL sterile water for injection (10 mL) to remove any residual [^18O]H2O and then dried with an argon stream. [^18F]NaF was set free by eluting the QMA Sep-Pak with 10 mL NaHCO3 and 10–20 mL air into the product vial. The average injected activity was as median 184 MBq (range 165–196 MBq), corresponding to ~8–10 MBq/kg. The PET was performed ~57 min (33–78 min) after injection of [^18F]NaF (pigs 9–13, Table 1).
(§8) The average injected activity was median 117 MBq (range 109–120 MBq), corresponding to ~5–6 MBq/kg.
as §2, §3, §4

A short description of data set [3]: Whole-body PET biodistribution and excretion of tracers in pigs (MIPs). Type of data set: in vivo, pig. From the text: Reflexes, pulse, oxygen saturation, and body temperature were monitored. […] In the present study, only the whole-body static PET/CT scans are presented.
The subject of data set [4] is vascular adhesion protein 1, VAP-1. The settings on record: cited from earlier work. An excerpt: The PET tracer [^68Ga]Ga-DOTA-Siglec-9 binds to a protein involved in leukocyte extravasations (vascular adhesion protein 1, VAP-1). Only recently, we have analyzed the dynamic data. […] However, the distribution volume for the uptake of soft tissue infections was elevated, concluding the tracer has a role for soft tissue infections ...

Data set [5] can be described thus: Static PET/CT tracer uptake in S. aureus induced osteomyelitis lesions, juvenile pig model. The settings on record: pig, in vivo, iv, Standard uptake values (SUV) in OM lesions.
From the text: as §1, §5, §6, §7, §8, §2, §3, §4

In a further data set the test system is osteomyelitis lesions. The settings on record: pigs; cited from earlier work. From the text: We have previously used ^99mTc-label […] ([^99mTc]Tc-DPD) to examine bone remodeling in pigs. […] We, therefore, moved on to use [^18F]NaF in the present study because [^18F]NaF though acting through similar uptake mechanisms as [^99mTc]Tc-DPD, [^18F]NaF is supposed to have a two-fold higher uptake in bones and a better sensitivity for metastatic osteoblastic metastases.

Where a SMILES comes first, the peptide text is derived from it. Bridges are numbered along the chain shown (N, C = ends). The star is where a group is joined. DOTA = O=C(O)CN1CCN(CC(=O)O)CCN(CC(=O)*)CCN(CC(=O)O)CC1; AEEA = NCCOCCOCC(=O)O

These results are taken from paper PMC7570567, “Attempts to Target Staphylococcus aureus Induced Osteomyelitis Bone Lesions in a Juvenile Pig Model by Using Radiotracers” (Molecules, 2020).

Consider `OC[C@H]1OC(O)[C@H]([18F])[C@@H](O)[C@@H]1O` (stereo partly drawn) [[^18F]FDG, [^18F]-fluorodeoxyglucose], for which the “Uptake in hyperplasic medial iliacus lymph node of the infected side compared to the lymph node in the non-infected left hind limb” value in data set [1] (pig 12) was “increased”. Further, the “Change of activity in the margin of the abscess in the static images” value in data set [1] (pig 12, static images acquired after 60 min, compared to 10-30 min) is listed as “increased slightly”. In addition, the “Standard uptake values (SUV) in OM lesions” value (from here on “Standard uptake values (SUV)”) in data set [2] (pig 1, 3 lesions) is listed as 4–7.3; in data set [2] (pig 2, 4 lesions) it was 2.3–5.9; in data set [2] (pig 3, 5 lesions), 2.9–4.5; in data set [2] (pig 4, 2 lesions), 10.5–16.3; in data set [2] (pig 5, 3 lesions), 3.4–9; in data set [2] (pig 6, 4 lesions), 4–9.2. The “Standard uptake values (SUV)” value is 3–6.4 in data set [2] (pig 7, 3 lesions); 2.4–8 in data set [2] (pig 8, 2 lesions); 5.4–5.9 in data set [2] (pig 9, 4 lesions); 4.4–5.1 in data set [2] (pig 10, 3 lesions); 1–3.9 in data set [2] (pig 11, 5 lesions); 6.1 in data set [2] (pig 12, 1 lesion). Moreover, the “Standard uptake values (SUV)” value in data set [2] (pig 13, 2 lesions) is given as 7.8–10.1; in data set [2] (pig 14, 3 lesions), 4–7.8; in data set [2] (pig 15, 1 lesion) it was 3.6. For the same compound, the “Number of OM lesions in which the tracer accumulated distinguishably” value in data set [2] (static PET ~61 min after injection, pigs 1-15) is recorded as 45 of the 45.

With `[18F-].[Na+]` [[^18F]NaF], the “Standard uptake values (SUV)” value in data set [2] (pig 9, 4 lesions) was 9.2–13.6; in data set [2] (pig 10, 3 lesions), 15.2–17; in data set [2] (pig 11, 5 lesions), 5.7–19.2; in data set [2] (pig 12, 1 lesion) it was 19.8; in data set [2] (pig 13, 2 lesions), 7.8–17.6. In data set [2] (static PET, K-A9 9 lesions, GSGK-A11 5, NaF 15, ubiquicidin 12, Siglec-9 19 lesions (early and late images)), the “Tracer accumulation in porcine OM lesions (in words)” value is reported as “no accumulation”. The Route of excretion result in data set [3] (pigs, whole-body PET, maximum intensity projections) is “excreted by the kidneys”. In addition, the “Distribution of the tracer in the body outside OM lesions” value in data set [3] (pigs, whole-body PET/CT) is given as “distributed to the growth zones of the bones”.

With `CC(C)C[C@@H]1NC(=O)CNC(=O)[C@H](CCCNC(=N)N)NC(=O)[C@H](Cc2c[nH]c3ccccc23)NC(=O)[C@H](CO)NC(=O)[C@H](CC(C)C)NC(=O)[C@H](CO)NC(=O)[C@H](CC(C)C)NC(=O)[C@H](CCCNC(=N)N)NC(=O)[C@H](C)NC(=O)[C@@H](NC(=O)COCCOCCNC(=O)CN2CCN(CC(=O)O)CCN(CC(=O)O)CCN(CC(=O)O)CC2)CSSC[C@@H](C(=O)N2CCC[C@H]2C(=O)N[C@@H](CO)C(=O)N[C@@H](CCCCN)C(N)=O)NC(=O)[C@H](CC(C)C)NC(=O)[C@H]([C@@H](C)O)NC1=O` [[^68Ga]Ga-DOTA-Siglec-9, metal not drawn] ({DOTA-AEEA}-CARLSLSWRGLTLCPSK-NH2; disulfide 1-14; N-terminus and C-terminus assumed), the “Uptake in the margin of an inguinal abscess adjacent to the S. aureus inoculation site” value in data set [1] (pig 12, images acquired 10 to 30 min after tracer injection) was “marked”. The “Change of activity in the margin of the abscess in the static images” value in data set [1] (pig, in vivo) is listed as “decreased”. Moreover, in data set [4] (pig, in vivo), the “Distribution volume for the uptake of soft tissue infections” value was “elevated”, the “Metabolism of the tracer in vivo” value was “metabolized very quickly” and the “Uptake in OM” value is “no increased”. The Kinetics of uptake entry in data set [4] (pigs, modeled with the rev2TCM (4 k-parameters)) is recorded as “reversible kinetics”. This compound came in with an SUV in data set [5] of 1.3 SUV. Also, in data set [2] (pig, in vivo), the “Tracer accumulation in porcine OM lesions (in words)” value is “no tracer activity”. In addition, in data set [3] (pig, in vivo), the “Distribution of the tracer in the body outside OM lesions” value was “accumulated in dorsocaudal parts of both lungs”.

As for “^99mTc-label methylene diphosphate [[^99mTc]Tc-DPD]”, the “Tracer uptake in the osteomyelitis lesions” value with osteomyelitis lesions was “did not observe any tracer uptake”.
